Converted amounts (≈) assume the structure as drawn. Read-outs that look alike come from different tables or passages of the source.
Legend:
[1] = system: Staphylococcus aureus A15090; experiment: MIC, broth micro dilution assay (NCCLS); format: cell-based; conditions: for MIC: Staphylococcus aureus, A15090, 18 h, read-out: MIC (μg/mL) against Staphylococcus aureus A15090
[2] = system: Streptococcus pneumoniae A28272; experiment: MIC, broth micro dilution assay (NCCLS); format: cell-based; conditions: for MIC: Streptococcus pneumoniae, A28272, 18 h, read-out: MIC (μg/mL) against Streptococcus pneumoniae A28272
[3] = system: Enterococcus faecalis A20688; experiment: MIC, broth micro dilution assay (NCCLS); format: cell-based; conditions: for MIC: Enterococcus faecalis, A20688, 18 h, read-out: MIC (μg/mL) against Enterococcus faecalis A20688
[4] = system: Staphylococcus aureus A15090; experiment: animal or person; format: in vivo, female ICR mice; conditions: A15090, in Mus musculus, iv, 1 h, read-out: PD50 (dose which protects 50% of mice from mortality)
[5] = Mueller-Hinton medium, 35° C., 18 hours
[6] = 50% Mueller-Hinton medium and 50% Todd Hewitt medium, 35° C., 18 hours

| SMILES | MIC [1] | MIC [2] | MIC [3] | ED50 [4] | MIC (μg/mL) against Staphylococcus aureus A15090 [1, 5] | MIC (μg/mL) against Streptococcus pneumoniae A28272 [2, 6] | MIC (μg/mL) against Enterococcus faecalis A20688 [3, 5] | MIC (μg/mL) against Staphylococcus aureus A15090 [1] | MIC (μg/mL) against Streptococcus pneumoniae A28272 [2] | MIC (μg/mL) against Enterococcus faecalis A20688 [3] |
| --- | --- | --- | --- | --- | --- | --- | --- | --- | --- | --- |
| CO/C(C)=C1/NC(=O)C([C@@H](C)O)NC(=O)c2csc(n2)-c2cc(O)c(-c3nc(C(=O)NC(CNCCCn4ccnc4)C(N)=O)cs3)nc2-c2csc(n2)[C@@H]2COC(=O)c3c4c5c(cccc5n3O)COC(=O)[C@@H](O[C@H]3C[C@](C)(O)[C@H](N(C)C)[C@H](C)O3)[C@H](OC4)[C@H](NC(=O)c3csc1n3)c1nc(cs1)C(=O)N2 (some centres unmarked) [Example 5] | 1 µg/mL (≈ 0.64 µM) | 0.03 µg/mL (≈ 0.0192 µM) | 1 µg/mL (≈ 0.64 µM) | 0.19 to 7.3 mg/kg |  |  |  |  |  |  |
| CCN(CC)CCN(C)CC(NC(=O)c1csc(-c2nc3c(cc2O)-c2nc(cs2)C(=O)NC(C(C)O)C(=O)N/C(=C(\C)OC)c2nc(cs2)C(=O)NC2c4nc(cs4)C(=O)NC(COC(=O)c4c5c6c(cccc6n4O)COC(=O)C(O[C@H]4C[C@](C)(O)[C@H](N(C)C)[C@H](C)O4)C2OC5)c2nc-3cs2)n1)C(N)=O (some centres unmarked) [Example 6] | 0.125 µg/mL (≈ 0.0797 µM) | 0.03 µg/mL (≈ 0.0191 µM) | 2 µg/mL (≈ 1.28 µM) | 0.19 to 7.3 mg/kg |  |  |  |  |  |  |
| CO/C(C)=C1/NC(=O)C([C@@H](C)O)NC(=O)c2csc(n2)-c2cc(O)c(-c3nc(C(=O)NC(CN4CCOCC4)C(N)=O)cs3)nc2-c2csc(n2)[C@@H]2COC(=O)c3c4c5c(cccc5n3O)COC(=O)[C@@H](O[C@H]3C[C@](C)(O)[C@H](N(C)C)[C@H](C)O3)[C@@H](OC4)[C@H](NC(=O)c3csc1n3)c1nc(cs1)C(=O)N2 (some centres unmarked) [Example 8] | 0.015 µg/mL (≈ 0.00984 µM) | 0.003 µg/mL (≈ 0.00197 µM) | 0.125 µg/mL (≈ 0.082 µM) | 0.19 to 7.3 mg/kg |  |  |  |  |  |  |
| CO/C(C)=C1/NC(=O)C(C(C)O)NC(=O)c2csc(n2)-c2cc(O)c(-c3nc(C(=O)NC(CN(C)CCO)C(N)=O)cs3)nc2-c2csc(n2)C2COC(=O)c3c4c5c(cccc5n3O)COC(=O)C(O[C@H]3C[C@](C)(O)[C@H](N(C)C)[C@H](C)O3)C(OC4)C(NC(=O)c3csc1n3)c1nc(cs1)C(=O)N2 (some centres unmarked) [Example 2] | 0.015 µg/mL (≈ 0.00992 µM) | 0.015 µg/mL (≈ 0.00992 µM) | 0.06 µg/mL (≈ 0.0397 µM) | 0.19 to 7.3 mg/kg |  |  |  |  |  |  |
| CO/C(C)=C1/NC(=O)C(C(C)O)NC(=O)c2csc(n2)-c2cc(O)c(-c3nc(C(=O)NC(CN(C)CCN(C)C)C(N)=O)cs3)nc2-c2csc(n2)C2COC(=O)c3c4c5c(cccc5n3O)COC(=O)C(O[C@H]3C[C@](C)(O)[C@H](N(C)C)[C@H](C)O3)C(OC4)C(NC(=O)c3csc1n3)c1nc(cs1)C(=O)N2 (some centres unmarked) [Example 9] | 0.06 µg/mL (≈ 0.039 µM) | 0.007 µg/mL (≈ 0.00455 µM) | 0.5 µg/mL (≈ 0.325 µM) | 0.19 to 7.3 mg/kg |  |  |  |  |  |  |
| CO/C(C)=C1/NC(=O)C(C(C)O)NC(=O)c2csc(n2)-c2cc(O)c(-c3nc(C(=O)NC(CN4CCN(C)CC4)C(N)=O)cs3)nc2-c2csc(n2)C2COC(=O)c3c4c5c(cccc5n3O)COC(=O)C(O[C@H]3C[C@](C)(O)[C@H](N(C)C)[C@H](C)O3)C(OC4)C(NC(=O)c3csc1n3)c1nc(cs1)C(=O)N2 (some centres unmarked) [Example 1] | 0.25 µg/mL (≈ 0.163 µM) | 0.125 µg/mL (≈ 0.0813 µM) | 0.5 µg/mL (≈ 0.325 µM) | 0.19 to 7.3 mg/kg |  |  |  |  |  |  |
| CO/C(C)=C1/NC(=O)C(C(C)O)NC(=O)c2csc(n2)-c2cc(O)c(-c3nc(C(=O)NC(CN(C)C)C(N)=O)cs3)nc2-c2csc(n2)C2COC(=O)c3c4c5c(cccc5n3O)COC(=O)C(O[C@H]3C[C@](C)(O)[C@H](N(C)C)[C@H](C)O3)C(OC4)C(NC(=O)c3csc1n3)c1nc(cs1)C(=O)N2 (some centres unmarked) [Example 7] | 0.06 µg/mL (≈ 0.0405 µM) | 0.03 µg/mL (≈ 0.0202 µM) | 0.125 µg/mL (≈ 0.0843 µM) | 0.19 to 7.3 mg/kg |  |  |  |  |  |  |
| CO/C(C)=C1/NC(=O)C(C(C)O)NC(=O)c2csc(n2)-c2cc(O)c(-c3nc(C(=O)NC(CNCCc4ccccn4)C(N)=O)cs3)nc2-c2csc(n2)C2COC(=O)c3c4c5c(cccc5n3O)COC(=O)C(O[C@H]3C[C@](C)(O)[C@H](N(C)C)[C@H](C)O3)C(OC4)C(NC(=O)c3csc1n3)c1nc(cs1)C(=O)N2 (some centres unmarked) [Example 3] | 1 µg/mL (≈ 0.641 µM) | 0.25 µg/mL (≈ 0.16 µM) | 1 µg/mL (≈ 0.641 µM) | 0.19 to 7.3 mg/kg |  |  |  |  |  |  |
| COC(C)=C1NC(=O)C(C(C)O)NC(=O)c2csc(n2)-c2cc(O)c(-c3nc(C(=O)NC(CN4CCCC4C(C)O)C(N)=O)cs3)nc2-c2csc(n2)C2COC(=O)c3c4c5c(cccc5n3O)COC(=O)C(OC3CC(C)(O)C(N(C)C)C(C)O3)C(OC4)C(NC(=O)c3csc1n3)c1nc(cs1)C(=O)N2 (centres unmarked) [Example 86] |  |  |  |  | 0.007 µg/mL (≈ 0.00451 µM) | 0.015 µg/mL (≈ 0.00966 µM) | 0.06 µg/mL (≈ 0.0386 µM) |  |  |  |
| CO/C(C)=C1/NC(=O)C(C(C)O)NC(=O)c2csc(n2)-c2cc(O)c(-c3nc(C(=O)NC(CNCCOCCOCCOCCN)C(N)=O)cs3)nc2-c2csc(n2)C2COC(=O)c3c4c5c(cccc5n3O)COC(=O)C(O[C@H]3C[C@](C)(O)[C@H](N(C)C)[C@H](C)O3)C(OC4)C(NC(=O)c3csc1n3)c1nc(cs1)C(=O)N2 (some centres unmarked) [Example 58] |  |  |  |  |  |  |  | 1.0 µg/mL (≈ 0.614 µM) | 0.25 µg/mL (≈ 0.153 µM) | 1.0 µg/mL (≈ 0.614 µM) |
| CO/C(C)=C1/NC(=O)C(C(C)O)NC(=O)c2csc(n2)-c2cc(O)c(-c3nc(C(=O)NC(CN4CCN(CC(=O)O)CC4)C(N)=O)cs3)nc2-c2csc(n2)C2COC(=O)c3c4c5c(cccc5n3O)COC(=O)C(O[C@H]3C[C@](C)(O)[C@H](N(C)C)[C@H](C)O3)C(OC4)C(NC(=O)c3csc1n3)c1nc(cs1)C(=O)N2 (some centres unmarked) [Example 39] |  |  |  |  | 1.0 µg/mL (≈ 0.632 µM) | 0.03 µg/mL (≈ 0.019 µM) | 1.0 µg/mL (≈ 0.632 µM) |  |  |  |
| CO/C(C)=C1/NC(=O)C(C(C)O)NC(=O)c2csc(n2)-c2cc(O)c(-c3nc(C(=O)NC(CN4CCN(c5ccccn5)CC4)C(N)=O)cs3)nc2-c2csc(n2)C2COC(=O)c3c4c5c(cccc5n3O)COC(=O)C(O[C@H]3C[C@](C)(O)[C@H](N(C)C)[C@H](C)O3)C(OC4)C(NC(=O)c3csc1n3)c1nc(cs1)C(=O)N2 (some centres unmarked) [Example 48] |  |  |  |  |  |  |  | 0.125 µg/mL (≈ 0.0781 µM) | 0.03 µg/mL (≈ 0.0187 µM) | 0.25 µg/mL (≈ 0.156 µM) |
| CO/C(C)=C1/NC(=O)C(C(C)O)NC(=O)c2csc(n2)-c2cc(O)c(-c3nc(C(=O)NC(CNCCN(CCN)CCN)C(N)=O)cs3)nc2-c2csc(n2)C2COC(=O)c3c4c5c(cccc5n3O)COC(=O)C(O[C@H]3C[C@](C)(O)[C@H](N(C)C)[C@H](C)O3)C(OC4)C(NC(=O)c3csc1n3)c1nc(cs1)C(=O)N2 (some centres unmarked) [Example 12] |  |  |  |  | 2.0 µg/mL (≈ 1.26 µM) | 0.5 µg/mL (≈ 0.316 µM) | 4.0 µg/mL (≈ 2.53 µM) |  |  |  |

— patent US20020065219A1, “Water soluble thiazolyl peptide derivatives” (priority 2000, published 2002)
